Test results from paper doi:10.1101/2024.12.30.630793 (bioRxiv, 2024).
Where two headings read alike, the source gives them in different places.

Key:
Acb4 (SPO1 Acb4) = biological target: T1, Acb4 (SPO1 Acb4) (Bacillus phage SPO1, UniProt B6V2Y3); test: Electrophoretic mobility shift assay: titration of recombinant Acb4 with 20 nM alpha-32P-radiolabelled cyclic dinucleotide, 50 mM Tris-HCl pH 7.5, 5 mM MgCl2, 10 mM KCl, 1 mM TCEP, 30 min on ice, nondenaturing 6% PAGE, fraction bound fitted to a single binding model.; details: n = 2
T1 construct: gene 1.3; recombinant from E. coli BL21(DE3)-RIL, N-terminal 6xHis-SUMO2 fusion, tag cleaved with SENP2; 96 amino acids, homotetramer
T1 sequence (B6V2Y3 1-96): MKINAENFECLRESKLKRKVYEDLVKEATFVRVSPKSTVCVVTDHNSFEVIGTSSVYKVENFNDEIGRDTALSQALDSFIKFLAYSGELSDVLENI

Bacillus phage SPO1 Acb4 = type: binding; details: for Kd: fraction bound fit to a single binding model, n = 2
[1] = biological target: Bacillus phage SPO1 anti-CBASS 4 (Acb4) (Bacillus phage SPO1); test: SEC-MALS; recombinant apo SPO1 Acb4 in solution; complex migrates at ~42.3 kDa

| Molecule | Kd (Acb4 (SPO1 Acb4)) [nM] | interaction with Acb4 (EMSA) (Bacillus phage SPO1 Acb4) | Kd (Bacillus phage SPO1 Acb4) [nM] | other results |
| --- | --- | --- | --- | --- |
| Nc1ncnc2c1ncn2[C@@H]1O[C@@H]2COP(=O)(O)O[C@@H]3[C@H](O)[C@@H](COP(=O)(O)O[C@H]2[C@H]1O)O[C@H]3n1ccc(=O)[nH]c1=O [2′3′-cUA, 2′3′-cyclic UMP-AMP, c[U(2′,5′)pA(3′,5′)p]] | 641 |  |  |  |
| Nc1ncnc2c1ncn2[C@@H]1O[C@@H]2COP(=O)(O)O[C@@H]3[C@H](O)[C@@H](COP(=O)(O)O[C@H]2[C@H]1O)O[C@H]3n1ccc(=O)[nH]c1=O [2′3′-cUA] |  | recognizes | 641 |  |
| Nc1ncnc2c1ncn2[C@@H]1O[C@@H]2COP(=O)(O)O[C@H]3[C@@H](O)[C@H](n4cnc5c(N)ncnc54)O[C@@H]3COP(=O)(O)O[C@H]2[C@H]1O [3′3′-cAA, 3′3′-c-di-AMP] |  | No interaction was detected |  |  |
| Nc1nc2c(ncn2[C@@H]2O[C@@H]3COP(=O)(O)O[C@H]4[C@@H](O)[C@H](n5cnc6c(N)ncnc65)O[C@@H]4COP(=O)(O)O[C@H]3[C@H]2O)c(=O)[nH]1 [3′3′-cGAMP, 3′3′-cyclic GMP-AMP, c[G(3′,5′)pA(3′,5′)p]] | 157 |  |  |  |
| Nc1nc2c(ncn2[C@@H]2O[C@@H]3COP(=O)(O)O[C@H]4[C@@H](O)[C@H](n5cnc6c(N)ncnc65)O[C@@H]4COP(=O)(O)O[C@H]3[C@H]2O)c(=O)[nH]1 [3′3′-cGAMP, 3′3′-cyclic GMP-AMP] |  |  | ~157 | Kd (Bacillus phage SPO1 Acb4; listed as 3'3'-cGAMP): 157 nM |
| Nc1nc2c(ncn2[C@@H]2O[C@@H]3COP(=O)(O)O[C@H]4[C@@H](O)[C@H](n5cnc6c(=O)[nH]c(N)nc65)O[C@@H]4COP(=O)(O)O[C@H]3[C@H]2O)c(=O)[nH]1 [3′3′-cGG, 3′3′-c-di-GMP] |  | No interaction was detected |  |  |
| Nc1ncnc2c1ncn2[C@@H]1O[C@@H]2COP(=O)(O)O[C@H]3[C@@H](O)[C@H](n4ccc(=O)[nH]c4=O)O[C@@H]3COP(=O)(O)O[C@H]2[C@H]1O [3′3′-cUA, 3′3′-cyclic UMP-AMP, c[U(3′,5′)pA(3′,5′)p]] | 262 |  |  |  |
| Nc1ncnc2c1ncn2[C@@H]1O[C@@H]2COP(=O)(O)O[C@H]3[C@@H](O)[C@H](n4ccc(=O)[nH]c4=O)O[C@@H]3COP(=O)(O)O[C@H]2[C@H]1O [3′3′-cUA] |  | recognizes | 262 |  |
| Bacillus phage SPO1 anti-CBASS 4 (Acb4) (natural protein) |  |  |  | stoichiometry N [1]: 4 |
